Measurements from PubChem BioAssay AID192 (DTP/NCI, 2004).
Where “and” joins values, the source holds several entries; their conditions need not be identical. Equal values may be shown once. Inconclusive results and toxic doses are left out.

Test system: BDF1 mice, B16 melanoma ip, median survival T/C
Experiment: NCI In Vivo Anticancer Drug Screen. Data for tumor model B16 Melanoma (intraperitoneal) in B6D2F1 (BDF1) mice
Settings: endpoint: median survival time, higher = longer survival
Method in brief: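 Values are ratios of treated (T) to vehicle-control (C) measurements of survival or tumor size in tumor-bearing mice.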

[1] = dose: 100.0 mg/kg/injection, schedule: Q01DX009 (ip), vehicle: Klucel (hydroxypropylcellulose) (HPC)
[2] = dose: 200.0 mg/kg/injection, schedule: Q01DX009 (ip), vehicle: Klucel (hydroxypropylcellulose) (HPC)
[3] = dose: 25.0 mg/kg/injection, schedule: Q01DX009 (ip), vehicle: saline with Tween-80
[4] = dose: 50.0 mg/kg/injection, schedule: Q01DX009 (ip), vehicle: saline with Tween-80
[5] = dose: 100.0 mg/kg/injection, schedule: Q01DX009 (ip), vehicle: saline with Tween-80
[6] = dose: 6.25 mg/kg/injection, schedule: Q01DX009 (ip), vehicle: saline with Tween-80
[7] = dose: 12.5 mg/kg/injection, schedule: Q01DX009 (ip), vehicle: saline with Tween-80

Which T/C (dose: 12.5 mg/kg/injection, schedule: Q01DX009 (ip), vehicle: Klucel (hydroxypropylcellulose) (HPC)) does the source give for O=C(Nc1ccccc1)Nc1nccs1 here?
Its T/C is 91 % of control.

And the T/C (dose: 25.0 mg/kg/injection, schedule: Q01DX009 (ip), vehicle: Klucel (hydroxypropylcellulose) (HPC))?
The T/C was 93 % of control and 113 % of control.

What about the T/C (dose: 50.0 mg/kg/injection, schedule: Q01DX009 (ip), vehicle: Klucel (hydroxypropylcellulose) (HPC)) of the same molecule?
Its T/C is 98 % of control and 102 % of control.

What about the T/C [1] of the same molecule?
The T/C was 93 % of control and 99 % of control.

What about the T/C [2] of the same molecule?
The T/C was 94 % of control and 100 % of control.

Which results are given for O=C(COc1ccc(Cl)cc1)Nc1cc(C(F)(F)F)ccc1Cl?
T/C [3]: 103 % of control; T/C [4]: 96 % of control; T/C [5]: 105 % of control

Which T/C (dose: 12.5 mg/kg/injection, schedule: Q01DX009 (ip), vehicle: water) does the source give for CNNCc1ccc(/C=N/NC(N)=S)cc1 here?
The T/C was 105 % of control.

What about the T/C (dose: 25.0 mg/kg/injection, schedule: Q01DX009 (ip), vehicle: water) of the same molecule?
The T/C was 100 % of control.

And the T/C (dose: 50.0 mg/kg/injection, schedule: Q01DX009 (ip), vehicle: water)?
The T/C was 99 % of control.

And the T/C (dose: 100.0 mg/kg/injection, schedule: Q01DX009 (ip), vehicle: water)?
The T/C was 97 % of control.

For COc1cccc2c1C(=O)c1c(O)c3c(c(O)c1C2=O)C[C@H](O)C[C@@H]3OC1CC(N)C(O)C(C)O1 (some centres undefined), which T/C (dose: 12.5 mg/kg/injection, schedule: Q01DX001 (ip), vehicle: water) is on record?
Its T/C is 169 % of control.

What about the T/C (dose: 50.0 mg/kg/injection, schedule: Q01DX001 (ip), vehicle: water) of the same molecule?
Its T/C is 110 % of control and 169 % of control and 267 % of control.

What about the T/C (dose: 100.0 mg/kg/injection, schedule: Q01DX001 (ip), vehicle: water) of the same molecule?
The T/C was 110 % of control.

How did the T/C [6] turn out when CC1(C)CC1(Br)Br was run?
Its T/C is 112 % of control.

And the T/C [7]?
Its T/C is 110 % of control.

And the T/C [3]?
Its T/C is 118 % of control.

And the T/C [4]?
The T/C was 102 % of control.

What about the T/C [5] of the same molecule?
Its T/C is 110 % of control.

Which results are given for CCC/C=C/C=C/C1CC(O)C(O)C(=O)C1CO (centres undefined)?
T/C [7]: 102 % of control; T/C [3]: 104 % of control; T/C [4]: 90 % of control; T/C [5]: 95 % of control

What does the source list for c1nnc(NCNc2nncs2)s1?
T/C (dose: 6.25 mg/kg/injection, schedule: Q01DX009 (ip), vehicle: saline): 108 % of control; T/C (dose: 25.0 mg/kg/injection, schedule: Q01DX009 (ip), vehicle: saline): 122 % of control; T/C (dose: 50.0 mg/kg/injection, schedule: Q04DX003 (ip), vehicle: saline): 109 % of control; T/C (dose: 100.0 mg/kg/injection, schedule: Q04DX003 (ip), vehicle: saline): 119 % of control

Which results are given for CCCC(C(=O)O)c1ccccc1C (centres undefined)?
T/C [5]: 102 % of control; T/C (dose: 200.0 mg/kg/injection, schedule: Q01DX009 (ip), vehicle: saline with Tween-80): 99 % of control; T/C (dose: 300.0 mg/kg/injection, schedule: Q01DX009 (ip), vehicle: saline with Tween-80): 106 % of control

With Cc1ccc2c(c1)P(=O)(O)c1cc(Cl)ccc1O2 as the molecule, how does the T/C (dose: 86.4 mg/kg/injection, schedule: Q01DX009 (ip), vehicle: water) read?
Its T/C is 100 % of control.

And the T/C (dose: 144.0 mg/kg/injection, schedule: Q01DX009 (ip), vehicle: water)?
Its T/C is 94 % of control.

What about the T/C (dose: 240.0 mg/kg/injection, schedule: Q01DX009 (ip), vehicle: water) of the same molecule?
The T/C was 101 % of control.

What about the T/C (dose: 259.0 mg/kg/injection, schedule: Q04DX003 (ip), vehicle: water) of the same molecule?
The T/C was 123 % of control.

And the T/C (dose: 400.0 mg/kg/injection, schedule: Q01DX009 (ip), vehicle: water)?
Its T/C is 98 % of control.

What about the T/C (dose: 432.0 mg/kg/injection, schedule: Q04DX003 (ip), vehicle: water) of the same molecule?
The T/C was 88 % of control.

For CCOc1nsc(OCC)n1, which T/C (dose: 12.5 mg/kg/injection, schedule: Q04DX003 (ip), vehicle: distilled water + Tween-80) is on record?
Its T/C is 103 % of control.

And the T/C (dose: 25.0 mg/kg/injection, schedule: Q04DX003 (ip), vehicle: distilled water + Tween-80)?
Its T/C is 96 % of control.

What about the T/C (dose: 50.0 mg/kg/injection, schedule: Q04DX003 (ip), vehicle: distilled water + Tween-80) of the same molecule?
Its T/C is 99 % of control.

And the T/C (dose: 100.0 mg/kg/injection, schedule: Q04DX003 (ip), vehicle: distilled water + Tween-80)?
The T/C was 98 % of control.

What does the source list for Cc1cc(Cl)ccc1NC(=O)COc1ccc(Cl)cc1?
T/C (dose: 3.13 mg/kg/injection, schedule: Q01DX009 (ip), vehicle: saline with Tween-80): 104 % of control; T/C [6]: 98 % of control; T/C [7]: 88 % of control and 95 % of control; T/C [3]: 93 % of control; T/C [4]: 91 % of control

How did the T/C [1] turn out when C1CC[N-]CC1.CC(=N\O)/C(C)=N/O.CC(=N\O)/C(C)=N/O.[Co+2].[c-]1ccccc1 was run?
Its T/C is 90 % of control.

What about the T/C [2] of the same molecule?
The T/C was 93 % of control.

What about the T/C (dose: 400.0 mg/kg/injection, schedule: Q01DX009 (ip), vehicle: Klucel (hydroxypropylcellulose) (HPC)) of the same molecule?
The T/C was 90 % of control.
